ChEMBL document CHEMBL1152465, “Comparative evaluation of the inhibitory activities of a series of pyrimidinedione congeners that inhibit human immunodeficiency virus types 1 and 2” (Antimicrob Agents Chemother, 2008)
The source made the active and inactive calls.

What was measured:
[1] = system: Human immunodeficiency virus 1; test: Antiviral activity against HIV1 infected in human HeLa cells expressing CD4-LTR assessed as inhibition of viral entry-related beta galactosidase expression treated for 2 hrs followed by drug wash out measured after 48 hrs by MAGI assay; assay type: functional, organism-based; conditions: for EC50: Human immunodeficiency virus 1, HeLa
[2] = system: Human immunodeficiency virus 1; test: Antiviral activity against HIV1 infected in human HeLa cells expressing CD4-LTR assessed as inhibition of viral entry-related beta galactosidase expression at > 10 ug/ml followed by drug wash out and viral infection measured after 48 hrs by MAGI assay; assay type: functional, organism-based
[3] = system: Human immunodeficiency virus 1; test: Antiviral activity against HIV1 infected in human HeLa cells expressing CD4-LTR assessed as inhibition of viral entry-related beta galactosidase expression pretreated 2 hrs before viral infection measured after 48 hrs of infection by MAGI assay; assay type: functional, organism-based
[4] = system: Human immunodeficiency virus 1; test: Antiviral activity against HIV1 infected in human HeLa cells expressing CD4-LTR assessed as inhibition of viral entry-related beta galactosidase expression at 0.2 to 0.4 uM followed by drug wash out and viral infection measured after 48 hrs by MAGI assay; assay type: functional, organism-based
[5] = Therapeutic index, ratio of TC50 human HeLa cells expressing CD4-LTR to EC50 for HIV1 entry inhibition in human HeLa cells expressing CD4-LTR; assay type: cell-based; conditions: read-out: TI
[6] = system: Human immunodeficiency virus 1; test: Antiviral activity against HIV1 RF infected in human CEM-SS cells assessed as inhibition of virus-induced cytopathic effect by XTT assay; assay type: functional, organism-based; conditions: Human immunodeficiency virus 1, RF
[7] = system: Human immunodeficiency virus 2; test: Inhibition of HIV2 reverse transcriptase
[8] = system: Simian immunodeficiency virus; test: Antiviral activity against SIV MAC251 infected in human 174xCEM cells assessed as inhibition of virus-induced cytopathic effect; assay type: functional, organism-based
[9] = system: Human immunodeficiency virus 2; test: Antiviral activity against HIV2 infected in human CEM-SS cells assessed as inhibition of viral replication and virus-induced cytopathic effect by dose-response curve analysis; assay type: functional; conditions: Human immunodeficiency virus 2, CEM-SS
[10] = target: Human immunodeficiency virus type 1 reverse transcriptase (Human immunodeficiency virus 1, UniProt Q72547, K103N); test: Inhibition of HIV1 reverse transcriptase K103N mutant assessed as 32P-labeled GMP incorporation into nascent DNA strand
[11] = Therapeutic index, ratio of TC50 for human CEM-SS cells to EC50 for HIV2 ROD infected in human CEM-SS cells; assay type: cell-based; conditions: CEM-SS cells, read-out: TI
[12] = system: Human immunodeficiency virus 2; test: Antiviral activity against HIV2 assessed as inhibition of viral replication treated at time points after viral entry into host cells; assay type: functional, organism-based
[13] = Cytotoxicity against human CEM-SS cells by XTT assay; assay type: cell-based; conditions: read-out: TC50 (the source's name)
[14] = system: Human immunodeficiency virus 2; test: Antiviral activity against HIV2 assessed as inhibition of viral single round replication at early time point; assay type: functional, organism-based
[15] = system: Human immunodeficiency virus 2; test: Inhibition of HIV2 reverse transcriptase assessed as 32P-labeled GMP incorporation into nascent DNA strand at highest concentration
[16] = system: Human immunodeficiency virus 1; test: Antiviral activity against HIV1 infected in human CEM-SS cells assessed as inhibition of viral replication and virus-induced cytopathic effect by dose-response curve analysis; assay type: functional; conditions: Human immunodeficiency virus 1, CEM-SS
[17] = Therapeutic index, ratio of TC50 for human CEM-SS cells to EC50 for HIV1 RF infected in human CEM-SS cells; assay type: cell-based; conditions: read-out: TI
[18] = target: Human immunodeficiency virus type 1 reverse transcriptase (Human immunodeficiency virus 1, UniProt Q72547); test: Inhibition of wild type HIV1 reverse transcriptase assessed as 32P-labeled GMP incorporation into nascent DNA strand
[19] = Cytotoxicity against human HeLa cells expressing CD4-LTR by XTT assay; assay type: cell-based; conditions: read-out: TC50 (the source's name)
HeLa = test: Inhibition of HIV1 gp120/CD4 interaction assessed as inhibition of gp120 and gp41 coexpressing human HL2/3 cell fusion to CD4 expressing human HeLa cells treated for 2 hrs measured after 48 hrs by chemiluminescence assay; assay type: cell-based; conditions: Human immunodeficiency virus 1
[20] = system: Human immunodeficiency virus 2; test: Antiviral activity against HIV2 ROD infected in human CEM-SS cells assessed as inhibition of virus-induced cytopathic effect by XTT assay; assay type: functional, organism-based, ISOLATE ROD; conditions: Human immunodeficiency virus 2, ISOLATE ROD, CEM-SS; read-out: EC50
[21] = system: Human immunodeficiency virus 1; test: Antiviral activity against HIV1 infected in human HeLa cells expressing CD4-LTR assessed as inhibition of viral entry-related beta galactosidase expression at > 0.5 uM followed by drug wash out and viral infection measured after 48 hrs by MAGI assay; assay type: functional, organism-based
[22] = system: Human immunodeficiency virus 1; test: Antiviral activity against HIV1 infected in human HeLa cells expressing CD4-LTR assessed as inhibition of viral entry-related beta galactosidase expression at 0.5 uM followed by drug wash out and viral infection measured after 48 hrs by MAGI assay; assay type: functional, organism-based

Compound | selectivity ratio [5] | EC50 [6] [µM] | EC50 [1] [µM] | Activity [7] | Activity [8] | EC99 [9] [µM] | IC50 [10] [µM] | selectivity ratio [11] | Activity [12] | CC50 [13] [µM] | Activity [14] | Activity [15] | EC99 [16] [µM] | selectivity ratio [17] | IC50 [18] [µM] | CC50 [19] [µM] | inhibition (HeLa) | EC50 [20] [µM] | also measured
COc1cc(-c2ccc(/N=N/c3ccc4c(S(=O)(=O)O)cc(S(=O)(=O)O)c(N)c4c3O)c(OC)c2)ccc1/N=N/c1ccc2c(S(=O)(=O)O)cc(S(=O)(=O)O)c(N)c2c1O | – | – | – | – | – | – | – | – | – | – | – | – | – | – | – | – | – | – | Activity [1]: Active; Activity [2]: inactive; Activity [3]: Active
O=C1Nc2ccc(Cl)cc2[C@@](C#CC2CC2)(C(F)(F)F)O1 [EFAVIRENZ] | – | – | – | – | – | – | – | – | – | – | – | – | – | – | – | – | – | – | Activity [1]: 0.02 µM; Activity [4]: Active
Cc1cc(C)cc(C(=O)c2c(C(C)C)c(=O)[nH]c(=O)n2CC2=CCCC2)c1 | 2290 | 0.0001 | 0.009 | inactive | inactive | 1 | 1.6 | 122 | inactive | 16.7 | Active | inactive | 0.001 | 523000 | 0.02 | 20.8 | inactive | 0.1 | –
CCc1c(Oc2cc(C)cc(C)c2)n(CC2CC2)c(=O)[nH]c1=O | 202000 | 0.006 | 0.006 | inactive | inactive | 10 | 0.21 | > 2100 | inactive | 1300 | Active | inactive | 1 | 215000 | 0.016 | 1280 | inactive | 0.6 | –
Cc1cc(C)cc(C(=O)c2c(C(C)C)c(=O)[nH]c(=O)n2CC2CC2)c1 | 101000 | 0.0005 | 0.012 | inactive | inactive | 10 | 2.7 | 13000 | inactive | 1200 | Active | inactive | 0.001 | 2.55e+06 | 1.97 | 1180 | inactive | 0.1 | –
Cc1cn([C@H]2C[C@H](N=[N+]=[N-])[C@@H](CO)O2)c(=O)[nH]c1=O | – | – | – | – | – | – | – | – | – | – | – | – | – | – | – | – | – | – | Activity [21]: inactive
CCc1c(C(=O)c2cc(C)cc(C)c2)n(CC2CC=CC2)c(=O)[nH]c1=O | 15700 | 0.002 | 0.07 | inactive | inactive | 100 | 2.6 | > 71 | inactive | 1100 | Active | inactive | 1 | 553000 | 0.179 | 1120 | inactive | 16 | Activity [22]: inactive
Cc1cc(C)cc(C(=O)c2c(C(C)C)c(=O)[nH]c(=O)n2CC2CC=CC2)c1 | 2690 | 0.0022 | 0.41 | inactive | inactive | 100 | 23 | > 75 | inactive | 1100 | Active | inactive | 1 | 491000 | 0.651 | 1120 | inactive | 15.5 | –
